This is an account of results in ChEMBL document CHEMBL1129993, “Synthesis and biological characterization of 1,4,5,6-tetrahydropyrimidine and 2-amino-3,4,5,6-tetrahydropyridine derivatives as selective m1 agonists” (J Med Chem, 1997).

The structures appear in SMILES notation.

Experiment [1] concerns the target T1, Muscarinic acetylcholine receptor M1 (Mus musculus) (UniProt P12657).
T1 sequence (whole entry): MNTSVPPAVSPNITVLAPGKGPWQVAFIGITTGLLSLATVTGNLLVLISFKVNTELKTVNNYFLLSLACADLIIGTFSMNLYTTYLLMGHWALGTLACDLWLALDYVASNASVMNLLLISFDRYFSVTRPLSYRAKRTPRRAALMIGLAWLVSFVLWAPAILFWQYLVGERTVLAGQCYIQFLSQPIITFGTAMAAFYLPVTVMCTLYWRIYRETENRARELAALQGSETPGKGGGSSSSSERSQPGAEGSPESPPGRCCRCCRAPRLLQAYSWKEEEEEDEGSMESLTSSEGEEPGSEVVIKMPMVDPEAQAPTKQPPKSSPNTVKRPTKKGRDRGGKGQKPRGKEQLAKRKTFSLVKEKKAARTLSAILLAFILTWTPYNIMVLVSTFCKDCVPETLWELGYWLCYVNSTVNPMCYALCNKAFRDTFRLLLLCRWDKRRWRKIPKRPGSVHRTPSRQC
In words: Percent inhibition (high) of [3H](R)-QNB binding to Muscarinic acetylcholine receptor M1 expressed in A9 L cell line in the absence of 300 uM GTP-gamma-S. Type of experiment: cell-based. The following applies: A9L.

Experiment [2] addresses T2, Muscarinic acetylcholine receptor M2 (Mus musculus) (UniProt Q9ERZ4).
T2 sequence (whole entry): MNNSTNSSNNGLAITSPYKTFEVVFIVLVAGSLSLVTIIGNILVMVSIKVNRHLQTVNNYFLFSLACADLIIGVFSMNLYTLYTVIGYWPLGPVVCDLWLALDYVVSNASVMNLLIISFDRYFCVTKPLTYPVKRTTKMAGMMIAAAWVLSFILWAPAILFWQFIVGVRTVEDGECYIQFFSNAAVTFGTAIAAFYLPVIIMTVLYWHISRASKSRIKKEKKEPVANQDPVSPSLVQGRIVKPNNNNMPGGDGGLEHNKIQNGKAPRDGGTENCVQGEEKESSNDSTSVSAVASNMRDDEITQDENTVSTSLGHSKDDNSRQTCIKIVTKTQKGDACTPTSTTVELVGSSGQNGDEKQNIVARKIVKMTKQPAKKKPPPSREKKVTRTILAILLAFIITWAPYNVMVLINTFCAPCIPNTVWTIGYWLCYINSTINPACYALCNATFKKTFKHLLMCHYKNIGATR
The following applies: A9L.

The target in experiment [3] is Muscarinic acetylcholine receptor M3 (Mus musculus) (UniProt Q9ERZ3). The following applies: A9L.
Description: Binding affinity (low) of [3H](R)-QNB binding to Muscarinic acetylcholine receptor M3 expressed in A9 L cell line
The target is the same in experiment [4]. In words: Percent inhibition (high) of [3H](R)-QNB binding to Muscarinic acetylcholine receptor M3 expressed in A9 L cell line. The class given is cell-based. The following applies: A9L, concentration not given here.
Experiment [5] shares this target. In words: Binding affinity (high) of [3H](R)-QNB binding to Muscarinic acetylcholine receptor M3 expressed in A9 L cell line. The class given is cell-based. The following applies: A9L.
Experiment [6] has as its target T2, Muscarinic acetylcholine receptor M2 (Mus musculus). The following applies: A9L. The source holds these as a separate data set.

Sequence of Muscarinic acetylcholine receptor M3 (Mus musculus) (Q9ERZ3 whole entry): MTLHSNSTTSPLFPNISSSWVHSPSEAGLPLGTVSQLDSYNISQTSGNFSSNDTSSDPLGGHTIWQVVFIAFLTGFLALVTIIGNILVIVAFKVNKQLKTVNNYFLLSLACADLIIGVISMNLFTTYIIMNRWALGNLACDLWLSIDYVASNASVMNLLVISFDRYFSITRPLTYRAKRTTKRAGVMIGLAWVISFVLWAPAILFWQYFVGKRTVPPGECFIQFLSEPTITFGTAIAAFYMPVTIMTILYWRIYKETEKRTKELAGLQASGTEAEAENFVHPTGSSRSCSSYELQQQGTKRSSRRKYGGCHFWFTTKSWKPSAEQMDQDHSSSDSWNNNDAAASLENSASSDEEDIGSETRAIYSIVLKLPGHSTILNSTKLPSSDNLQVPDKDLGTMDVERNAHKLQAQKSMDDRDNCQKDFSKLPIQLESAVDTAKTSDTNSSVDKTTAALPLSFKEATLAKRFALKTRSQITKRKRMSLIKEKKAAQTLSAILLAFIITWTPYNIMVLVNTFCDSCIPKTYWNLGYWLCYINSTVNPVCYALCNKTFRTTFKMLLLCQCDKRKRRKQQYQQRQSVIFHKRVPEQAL

In turn, `COC(=O)C1CN=CNC1` (stereo not given) gave an inhibition in experiment [1] of 23.5%. In addition, the KL in experiment [2] and in experiment [3] was 3.3 nM each time.

On to `C#CCCOC(=O)C1CN=CNC1` (stereo not given), for which, in experiment [1], the inhibition amounted to 23.2%.

Consider `CCCC#Cc1noc(C2CN=CNC2)n1` (stereo not given), for which the inhibition in experiment [1] was 32.5%.

Take `C[N+](C)(C)CCOC(N)=O`: the inhibition in experiment [4] was found to be 19%. For the same molecule, the KH in experiment [5] worked out at 56 nM; in experiment [6], 0.81 nM. The results for the KL in experiment [2] and in experiment [3] were 12 nM and 8.4 nM, respectively.

`CC#CCOC(=O)C1CN=CNC1` (stereo not given): the inhibition in experiment [1] came out at 23.4%.

For the molecule `Cc1noc(C2CN=CNC2)n1` (stereo not given), the inhibition came to 30.9% in experiment [1] and 95% in experiment [4]. For the same molecule, the KL in experiment [2] is 0.46 nM; in experiment [3], 0.57 nM.

In the case of `Cc1noc(C2=CCCN(C)C2)n1`, the inhibition in experiment [4] stood at 29%. The KH in experiment [5] stood at 16 nM. Further, the figures for the KL in experiment [2] and in experiment [3] were 0.087 nM and 0.46 nM, respectively.

In the case of `C#CCOC(=O)C1CN=CNC1` (stereo not given), the inhibition in experiment [1] is 31.5%.

One may read the inhibition as the share of the control response that was lost under treatment.
